In patent publication US12310946B2, “Pharmaceutical composition for oral administration of edaravone and method of administering same” (MITSUBISHI TANABE PHARMA CORPORATION, priority 2020, dated 2025):
Where two headings read alike, the source gives them in different places.

Columns and labels:
[1] = Clinical study #10: PK of edaravone oral formulation (formula #7, 120 mg), standard meal 30 minutes after administration vs fasted; format: in vivo, human; conditions: 120 mg oral; for Cmax / Tmax / half-life / AUC(0-t): male, human, plasma, po, 120 mg, mean; for AUC(0-t): read-out: AUC0-24h
Method: Effects of meal consumption 30 minutes after administration of the edaravone oral formulation on the pharmacokinetics of edaravone were evaluated. Specifically, a clinical study #10 described below was conducted in Japanese healthy adult male subjects. In the clinical study #10, the edaravone oral formulation of the formula #7 (edaravone content of 120 mg) in Table 11 above was used and administered orally once during the study period. […]
As a post-administration consumption group, subjects in fasted conditions after a lapse of 10 hours or longer from meal consumption were orally administered with the edaravone oral formulation, […] Blood samples were each collected before the administration, and 15 minutes, 30 minutes, 1 hour, 1.5 hours, 2 hours, 4 hours, 6 hours, 8 hours, 12 hours, and 24 hours after the administration, and the concentrations of unchanged edaravone in plasma were measured. […] was carried out after the blood sample collection 30 minutes after the administration, and a subsequent meal was not consumed until the blood sample collection 4 hours after the administration was completed.
On the other hand, as a fasted group for reference, the edaravone oral formulation was administered orally to different subjects in fasted conditions, blood samples were collected, and the concentrations of unchanged edaravone in plasma were measured in the same manner.

[2] = Clinical study #1: PK of edaravone oral formulation (formula #1), fasted vs 30 min after high-fat meal; format: in vivo; conditions: male, human, plasma, 200 mg, 200 mg oral
Method: (§1) Effects of meal consumption before administration of the edaravone oral formulation on the pharmacokinetics of edaravone were evaluated. Specifically, clinical studies #1, #2, and #3 described below were conducted on separate days in Japanese healthy adult male subjects. In each of clinical studies #1, #2, and #3, one dose each of edaravone oral formulations (edaravone suspensions) of formulas #1, #2, and #3 shown in Table 1 below were used respectively and administered orally once during the study period. For each clinical study, a reference study was conducted (reference example), in which the edaravone oral formulation was administered in fasted conditions as described below, and in each clinical study and the corresponding reference study, the edaravone oral formulation was each administered to the same subjects.
(§2) For the high-fat meal, a meal with total calories per meal of 800 to 1000 kilocalories and calorie intake from lipid of 50% was used. For the standard meal, a meal with total calories per meal of 400 to 500 kilocalories and calorie intake from lipid of 25% was used. For the light meal, a liquid-type nutritional supplement with total calories per meal of 250 kilocalories (enteral nutritional supplement: Ensure Liquid (trade name)) was used.
The edaravone oral formulation (formula #1) was administered orally to the subjects 30 minutes after high-fat meal consumption. Blood samples were each collected before the administration, and 15 minutes, 30 minutes, 1 hour, 1.5 hours, 2 hours, 4 hours, 6 hours, 8 hours, 12 hours, 24 hours, 36 hours, and 48 hours after the administration, and the concentrations of unchanged edaravone in plasma were measured. On the other hand, as a reference example, the edaravone oral formulation was administered orally to the same subjects in fasted conditions, blood samples were collected, and the concentrations of unchanged edaravone in plasma were measured in the same manner. For the administration in fasted conditions, the edaravone oral formulation was administered orally after a lapse of 10 hours or more from the previous meal consumption (the same applies hereinafter). None of the subjects consumed a next meal until the blood sample collection 4 hours after the administration was completed.

[3] = Clinical study #3: PK of edaravone oral formulation (formula #3), fasted vs after high-fat, standard or light meal; analysis of variance; format: in vivo, human; conditions: 105 mg oral; for Cmax Max: in ng/mL; for AUC(0-inf) / Cmax / Tmax / half-life: male, human, plasma, po, 105 mg
Method: as §1, §2
As examples, the edaravone oral formulation (formula #3) was administered orally to each subject of 8 hours after high-fat meal consumption, 4 hours after standard meal consumption, and 2 hours after light meal consumption. Blood samples were each collected before the administration, and 5 minutes, 15 minutes, 30 minutes, 45 minutes, 1 hour, 1.5 hours, 2 hours, 4 hours, 6 hours, 8 hours, 10 hours, 12 hours, 24 hours, 36 hours, and 48 hours after the administration, and the concentrations of unchanged edaravone in plasma were measured. In addition, as a comparative example, the edaravone oral formulation was administered orally to the same subjects 2 hours after standard meal consumption, blood samples were collected, and the concentrations of unchanged edaravone in plasma were measured in the same manner. On the other hand, as a reference example, the edaravone oral formulation was administered orally to the same subjects in fasted conditions, blood samples were collected, and the concentrations of unchanged edaravone in plasma were measured in the same manner. For the administration in fasted conditions, the edaravone oral formulation was administered orally after a lapse of 10 hours or longer from the previous meal consumption. None of the subjects consumed a next meal until the blood sample collection 4 hours after the administration was completed.
That is, from the results of the edaravone PK parameters, an analysis of variance was conducted on the AUC and Cmax in consideration of the meal condition. The spaghetti plots in FIG. 1 show results from individual subjects, in which results from the same subjects are connected with lines between results in the administration in fasted conditions and results in the postprandial administration.

[4] = standard meal 30 minutes after administration vs fasted
[5] = formula #7, 30 min before low-fat meal (n = 6)
[6] = formula #1, 30 min after high-fat meal, mean (n = 5)
[7] = formula #1, fasted, mean (n = 6)
[8] = 2 h after standard meal vs fasted
[9] = 4 h after standard meal vs fasted
[10] = 8 h after high-fat meal vs fasted
[11] = formula #3, 2 h after light meal, mean (n = 16)
[12] = formula #3, 2 h after standard meal, mean (n = 16)
[13] = formula #3, 4 h after standard meal, mean (n = 16)
[14] = formula #3, 8 h after high-fat meal, mean (n = 16)
[15] = formula #3, fasted, mean (n = 16)

decrease in the AUC in comparison with the fasted group [1, 4]: about 14.5% | decrease in the Cmax in comparison with the fasted group [1, 4]: about 12.6% | Cmax [1, 5]: 1950 ng/mL | Tmax [1, 5]: 0.42 h | half-life [1, 5]: 4.6 h | AUC(0-t) [1, 5]: 1920 ng·h/mL | Cmax ([1]; formula #7, fasted (n = 6)): 1740 ng/mL | Tmax ([1]; formula #7, fasted (n = 6)): 0.38 h | half-life ([1]; formula #7, fasted (n = 6)): 5.13 h | AUC(0-t) ([1]; formula #7, fasted (n = 6)): 2240 ng·h/mL | AUC(0-inf) [2, 6]: 2470 ng·h/mL | Cmax [2, 6]: 899 ng/mL | Tmax [2, 6]: 1.35 h | half-life [2, 6]: 5.23 h | AUC(0-inf) [2, 7]: 6310 ng·h/mL | Cmax [2, 7]: 4930 ng/mL | Tmax [2, 7]: 0.42 h | half-life [2, 7]: 9.05 h | change in the AUC in comparison with fasted ([3]; 2 h after light meal vs fasted): no decrease and → | change in the Cmax in comparison with fasted ([3]; 2 h after light meal vs fasted): no decrease and → | decrease in the AUC in comparison with fasted [3, 8]: (21% ↓) | decrease in the Cmax in comparison with fasted [3, 8]: (45% ↓) | Cmax Min ([3]; 2 hours after light meal): 388 ng/mL | Cmax Max ([3]; 2 hours after light meal): 3237 | change in the AUC in comparison with fasted [3, 9]: no decrease and → | change in the Cmax in comparison with fasted [3, 9]: no decrease and → | Cmax Min ([3]; 4 hours after standard meal): 642 ng/mL | Cmax Max ([3]; 4 hours after standard meal): 4286 | change in the AUC in comparison with fasted [3, 10]: no decrease and → | change in the Cmax in comparison with fasted [3, 10]: no decrease and → | Cmax Min ([3]; 8 hours after high-fat meal): 595 ng/mL | Cmax Max ([3]; 8 hours after high-fat meal): 5270 | Cmax Min ([3]; fasted): 797 ng/mL | Cmax Max ([3]; fasted): 4816 | AUC(0-inf) ([3]; 2 hours after light meal, analysis of variance, read-out: AUC0-∞ Least-square mean): 1880 ng·h/mL | Cmax ([3]; 2 hours after light meal, analysis of variance, read-out: Cmax Least-square mean): 1660 ng/mL | Cmax ([3]; 2 hours after light meal, read-out: Cmax Median): 1960 ng/mL | AUC(0-inf) ([3]; 4 hours after standard meal, analysis of variance, read-out: AUC0-∞ Least-square mean): 1990 ng·h/mL | Cmax ([3]; 4 hours after standard meal, analysis of variance, read-out: Cmax Least-square mean): 1760 ng/mL | Cmax ([3]; 4 hours after standard meal, read-out: Cmax Median): 1740 ng/mL | AUC(0-inf) ([3]; 8 hours after high-fat meal, analysis of variance, read-out: AUC0-∞ Least-square mean): 2120 ng·h/mL | Cmax ([3]; 8 hours after high-fat meal, analysis of variance, read-out: Cmax Least-square mean): 2190 ng/mL | Cmax ([3]; 8 hours after high-fat meal, read-out: Cmax Median): 2240 ng/mL | Cmax ([3]; fasted and each postprandial administration alike, read-out: Cmax, median of values of each subject): ~2000 ng/mL | Cmax ([3]; fasted and each postprandial administration alike, read-out: Cmax, range of values of each subject): 1000 to 5000 ng/mL | AUC(0-inf) ([3]; fasted, analysis of variance, read-out: AUC0-∞ Least-square mean): 2070 ng·h/mL | Cmax ([3]; fasted, analysis of variance, read-out: Cmax Least-square mean): 2020 ng/mL | Cmax ([3]; fasted, read-out: Cmax Median): 1990 ng/mL | Tmax [3, 11]: 0.41 h | half-life [3, 11]: 7.31 h | AUC(0-inf) ([3]; formula #3, 2 h after light meal, mean (n = 16), read-out: AUC0-∞): 1960 ng·h/mL | Cmax ([3]; formula #3, 2 h after light meal, mean (n = 16), read-out: Cmax): 1900 ng/mL | Tmax [3, 12]: 0.63 h | half-life [3, 12]: 11.2 h | AUC(0-inf) ([3]; formula #3, 2 h after standard meal, mean (n = 16), read-out: AUC0-∞): 1720 ng·h/mL | Cmax ([3]; formula #3, 2 h after standard meal, mean (n = 16), read-out: Cmax): 1280 ng/mL | Tmax [3, 13]: 0.44 h | half-life [3, 13]: 9.05 h | AUC(0-inf) ([3]; formula #3, 4 h after standard meal, mean (n = 16), read-out: AUC0-∞): 2070 ng·h/mL | Cmax ([3]; formula #3, 4 h after standard meal, mean (n = 16), read-out: Cmax): 2020 ng/mL | Tmax [3, 14]: 0.36 h | half-life [3, 14]: 7.38 h | AUC(0-inf) ([3]; formula #3, 8 h after high-fat meal, mean (n = 16), read-out: AUC0-∞): 2210 ng·h/mL | Cmax ([3]; formula #3, 8 h after high-fat meal, mean (n = 16), read-out: Cmax): 2520 ng/mL | Tmax [3, 15]: 0.38 h | half-life [3, 15]: 8.17 h | AUC(0-inf) ([3]; formula #3, fasted, mean (n = 16), read-out: AUC0-∞): 2160 ng·h/mL | Cmax ([3]; formula #3, fasted, mean (n = 16), read-out: Cmax): 2320 ng/mL
Structure (SMILES): CC1=NN(c2ccccc2)C(=O)C1 [Edaravone, 3-methyl-1-phenyl-2-pyrazolin-5-one]
